Measurements reported in US9949948B2, “Artemisinin and its derivatives for use in the treatment of trauma haemorrhage and associated conditions” (Queen Mary University of London, priority 2011, dated 2018).

What was measured:
HS-rats = experiment: Organ injury and dysfunction induced by trauma haemorrhage (haemorrhagic shock) in the rat; format: in vivo, Wistar rats
Protocol: Thirty-five male Wistar rats (271±5 g) were anaesthetised with sodium thiopentone (120 mg/kg i.p., LINK Pharmaceuticals Ltd., West Sussex, UK) and anaesthesia was maintained by supplementary injections (˜10 mg/kg i.v.) of sodium thiopentone as and when required. The animals were placed onto a thermostatically controlled heating mat (Harvard Apparatus Ltd., Kent, UK) and body temperature was maintained at 37±1° C. by means of a rectal probe attached to a homeothermic blanket. A tracheotomy was performed by inserting into the lumen of the trachea a small length of polyethylene tubing [Internal Diameter (ID) 1.67 mm, Portex, Kent, UK] to maintain airway patency and facilitate spontaneous respiration.
The right carotid artery was cannulated (ID 0.58 mm, Portex) to facilitate the withdrawal of blood using a heparinised syringe. The right jugular vein was cannulated (ID 0.40 mm, Portex) for the administration of Ringer's Lactate (RL), shed blood, test compounds and/or vehicle. The bladder was also cannulated (ID 0.76 mm, Portex) for the collection of urine. Upon completion of the surgical procedure, cardiovascular parameters were allowed to stabilise for a period of 15 min.
After the stabilisation period, blood was withdrawn via the cannula inserted in the right carotid artery in order to achieve a fall in MAP to 35±5 mmHg within 10 min. From this point onwards, MAP was maintained at 35±5 mmHg for a period of 90 min either by further withdrawal of blood during the compensation phase (MAP rises following blood withdrawal due to sympathetic response) or administration of Ringer's Lactate i.v. during the decompensation phase (animals are unable to increase and maintain high MAP). The average volume of blood withdrawn during haemorrhage was 9.8±0.2 ml (n=31, across all haemorrhaged groups). At 90 min after initiation of haemorrhage, resuscitation was performed with 20 ml/kg Ringer's Lactate i.v. over a period of 10 min and then half the shed blood mixed with 100 u/ml heparinised saline i.v. over a period of 50 min. At the end of 1 h resuscitation, an i.v. infusion of Ringer's Lactate (1.5 ml/kg/h) was started as fluid replacement and maintained for a further 3 h.
Four hours after the onset of resuscitation, 1.2 ml blood was collected from the right carotid artery and decanted into serum gel tubes (Sarstedt, Numbrecht, Germany), after which the heart was removed to terminate the experiment. The samples were centrifuged (9900 rpm for 3 min) to separate serum from which urea, creatinine, aspartate aminotransferase (AST), alanine aminotransferase (ALT) and creatinine kinase (CK) were measured within 24 hours (Idexx Laboratories Ltd., West Yorkshire, UK). Urine collected during the last 3 h of the experiment was analysed for creatinine levels in order to estimate creatinine clearance as an indicator of glomerular dysfunction and was calculated as follows: […]
Sham-operated rats underwent identical surgical procedures but without haemorrhage or resuscitation.

[1] = tested on: rats subjected to regional myocardial ischaemia and reperfusion; experiment: Regional myocardial ischaemia and reperfusion, artesunate and dihydroartemisinin; format: in vivo, Wistar rats
Protocol: Rats were anaesthetised with thiopentone sodium (Intraval® 120 mg/kg i.p.). Anaesthesia was maintained by supplementary injections of thiopentone sodium as required. The trachea was cannulated and the animals were ventilated with a Harvard ventilator (inspiratory oxygen concentration: 30%; 70 strokes/min, tidal volume: 8-10 ml/kg). Body temperature was maintained at 37±1° C. with the aid of a rectal probe thermometer attached to a homeothermic blanket unit (Harvard Apparatus Ltd., Edenbridge, Kent. U.K.). […] The right jugular vein was then cannulated for the administration of drugs and saline. A para-sternal thoracotomy was then performed, using an Electrosurgery device to cauterize the intercostals arteries before cutting through three ribs. The chest was retracted and pericardium dissected from the heart. The left anterior descending (LAD) coronary artery was isolated and a snare occluder was placed around the LAD. The retractor was then removed and the animal was allowed to stabilise for 15 min.
The occluder was tightened at time 0. After 25 min of LAD-occlusion, the occluder was released to allow reperfusion of the previously ischemic myocardium (2 h). Haemodynamic parameters were continuously monitored. Baseline readings were taken prior to treatment, and, myocardial ischaemia reperfusion (IR) injury. The pressure rate index (PRI), a relative indicator of myocardial oxygen consumption was calculated as a product of the MAP (mmHg) and HR (beats/minute-bpm) and expressed in mm Hg bpm×10^−3.
At the end of the 2 h reperfusion period, the LAD was re-occluded and 1 ml of Evans Blue dye (2% w/v) was injected into the animal, via the jugular vein. The Evans Blue dye stains the tissue it can circulate through, therefore the non-perfused vascular (occluded) tissue remains un-coloured. Each animal was killed with an over-dose of anaesthetic, the heart excised, and excess dye washed off. […] The ischaemic and non-ischaemic tissue was weighed, and the AAR expressed as a percentage of the left ventricle. The tissue from the AAR was cut into small pieces and incubated with p-nitroblue tetrazolium (NBT, 0.5 mg/ml) for 30 min at 37° C. NBT is a reducing agent that reacts with dehydrogenases present in viable (non-infarcted) tissue to produce a dark blue formazan. Infarcted tissue (non-viable) will not have dehydrogenase activity and will therefore fail to stain. The stained tissue was separated from the infarcted tissue, weighed, and the infarct size expressed as a percentage of the AAR.
Sham-operated rats were subjected to surgical procedure without myocardial ischaemia and reperfusion.

[2] = 1 mg/kg i.v. on resuscitation, P>0.05
[3] = both 3 and 10 mg/kg i.v. on resuscitation, P<0.05
[4] = bolus 1 mg/kg upon reperfusion, P>0.05 vs Control

Structure (SMILES): C[C@H]1[C@H](OC(=O)CCC(=O)O)O[C@@H]2O[C@@]3(C)CC[C@H]4[C@H](C)CC[C@@H]1[C@@]24OO3 [artesunate]
- rise in serum ALT (HS-rats; [2]): no significant effect
- rise in serum AST (HS-rats; [2]): no significant effect
- rise in serum creatinine (HS-rats; [2]): no significant effect
- rise in serum creatinine kinase (HS-rats; [2]): no significant effect
- rise in serum urea (HS-rats; [2]): no significant effect
- rise in serum urea (HS-rats; 3 mg/kg i.v. on resuscitation, 4 h after onset of resuscitation, P<0.05 vs HS-rats): significantly attenuated
- rise in serum creatinine (HS-rats; 3 mg/kg i.v. on resuscitation, P<0.005 vs HS-rats): significantly attenuated
- rise in serum creatinine (HS-rats; 10 mg/kg i.v. on resuscitation, P<0.005): significantly attenuated
- decline in MAP caused by haemorrhage during the resuscitation phase (HS-rats; 1, 3 or 10 mg/kg i.v. on resuscitation, P>0.05): failed to attenuate
- rise in serum ALT (HS-rats; both 3 and 10 mg/kg i.v. on resuscitation, P<0.005): significantly attenuated
- rise in serum AST (HS-rats; [3]): significantly attenuated
- rise in serum creatinine kinase (HS-rats; [3]): significantly attenuated
- infarct size (percentage of the AAR) ([1]; 1 mg/kg i.v. bolus upon reperfusion, from 59.8±3.2, P<0.05): 36.0±1.1%
- Infarct size reduction ([1]; 1 mg/kg i.v. upon reperfusion, vs control): 40%
- area at risk ([1]; 1 mg/kg, compared to vehicle treated rats): no significant effect
- fall in mean arterial blood pressure caused by myocardial ischaemia and reperfusion [1, 4]: did not attenuate
- heart rate [1, 4]: did not have a significant effect
